Where a SMILES comes first, the peptide text is derived from it. Bridges are numbered along the chain shown (N, C = ends).
Key:
Type in all cases: functional, cell-based
[1] = target: T1, Gastric inhibitory polypeptide receptor (Homo sapiens) (UniProt P48546); assay: Agonist activity at human GIP receptor expressed in HEK293 cells assessed as increase in cAMP level after 5 hrs by CRE driven luciferase reporter gene assay relative to GIP; parameters: concentration or dose not given beside the values
T1 sequence (whole entry): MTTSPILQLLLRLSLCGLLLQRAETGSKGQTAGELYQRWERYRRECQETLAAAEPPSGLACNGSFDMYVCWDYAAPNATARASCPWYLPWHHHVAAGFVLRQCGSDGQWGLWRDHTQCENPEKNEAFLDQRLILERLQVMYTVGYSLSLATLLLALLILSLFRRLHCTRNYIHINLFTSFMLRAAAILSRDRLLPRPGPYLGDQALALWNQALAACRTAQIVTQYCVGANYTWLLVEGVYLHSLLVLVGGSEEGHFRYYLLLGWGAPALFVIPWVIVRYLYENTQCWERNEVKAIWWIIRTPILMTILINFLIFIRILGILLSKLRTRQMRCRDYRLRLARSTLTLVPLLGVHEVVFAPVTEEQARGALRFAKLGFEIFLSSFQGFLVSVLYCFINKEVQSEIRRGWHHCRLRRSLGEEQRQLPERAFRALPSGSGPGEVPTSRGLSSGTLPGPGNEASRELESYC

[2] = target: T2, Glucagon-like peptide 1 receptor (Homo sapiens, UniProt P43220); assay: Agonist activity at human GLP1 receptor expressed in HEK293 cells assessed as increase in cAMP level after 5 hrs by CRE driven luciferase reporter gene assay
[3] = target: T3, Gastric inhibitory polypeptide receptor (Homo sapiens, UniProt P48546); assay: Agonist activity at human GIP receptor expressed in HEK293 cells assessed as increase in cAMP level after 5 hrs by CRE driven luciferase reporter gene assay
T3 sequence (P48546 whole entry): T1 sequence (whole entry)

[4] = target: T2, Glucagon-like peptide 1 receptor; assay: Agonist activity at human GLP1 receptor expressed in HEK293 cells assessed as increase in cAMP level after 5 hrs by CRE driven luciferase reporter gene assay relative to GLP1; parameters: concentration or dose not given beside the values
[5] = target: T4, Glucagon receptor (Homo sapiens, UniProt P47871); assay: Agonist activity at human GCG receptor expressed in HEK293 cells assessed as increase in cAMP level after 5 hrs by CRE driven luciferase reporter gene assay
[6] = target: T4, Glucagon receptor; assay: Agonist activity at human GCG receptor expressed in HEK293 cells assessed as increase in cAMP level after 5 hrs by CRE driven luciferase reporter gene assay relative to glucagon

T2 sequence (P43220 whole entry): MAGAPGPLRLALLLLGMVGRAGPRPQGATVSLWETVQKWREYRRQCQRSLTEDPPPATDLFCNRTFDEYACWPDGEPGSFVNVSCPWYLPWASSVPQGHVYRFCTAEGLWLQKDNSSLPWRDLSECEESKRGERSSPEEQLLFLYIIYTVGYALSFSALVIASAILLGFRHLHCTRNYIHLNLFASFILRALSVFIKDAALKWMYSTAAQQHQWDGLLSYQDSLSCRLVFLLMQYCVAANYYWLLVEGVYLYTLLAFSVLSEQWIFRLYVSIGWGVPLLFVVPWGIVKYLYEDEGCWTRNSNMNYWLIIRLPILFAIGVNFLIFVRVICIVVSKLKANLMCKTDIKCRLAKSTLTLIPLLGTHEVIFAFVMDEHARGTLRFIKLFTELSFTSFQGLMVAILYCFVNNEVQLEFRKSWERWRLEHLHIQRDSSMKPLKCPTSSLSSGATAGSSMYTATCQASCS
T4 sequence (P47871 whole entry): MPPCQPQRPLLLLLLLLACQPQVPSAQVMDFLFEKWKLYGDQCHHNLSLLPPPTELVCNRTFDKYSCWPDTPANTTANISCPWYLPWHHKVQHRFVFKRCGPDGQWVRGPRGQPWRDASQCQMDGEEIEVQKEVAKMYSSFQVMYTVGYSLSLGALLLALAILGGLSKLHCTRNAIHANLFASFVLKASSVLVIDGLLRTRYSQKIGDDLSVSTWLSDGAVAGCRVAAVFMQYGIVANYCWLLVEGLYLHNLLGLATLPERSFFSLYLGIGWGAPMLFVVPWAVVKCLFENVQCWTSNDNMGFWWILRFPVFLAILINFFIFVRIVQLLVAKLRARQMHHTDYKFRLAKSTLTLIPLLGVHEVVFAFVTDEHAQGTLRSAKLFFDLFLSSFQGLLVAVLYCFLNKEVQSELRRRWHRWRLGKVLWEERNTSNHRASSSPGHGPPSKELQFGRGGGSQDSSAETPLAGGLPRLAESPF

Row | Activity [1] [%] | EC50 [2] [pM] | EC50 [3] [pM] | Activity [4] [%] | EC50 [5] [pM] | Activity [6] [%] | SMILES
1 | 0 | 115 | 5830 | 24 | 16 | 200 | CCCCCCCCCCCCCCCC(=O)N[C@@H](CCC(=O)NCCCC[C@H](NC(=O)[C@H](CC(=O)O)NC(=O)[C@H](CO)NC(=O)[C@@H](NC(=O)[C@H](Cc1ccccc1)NC(=O)[C@@H](NC(=O)CNC(=O)[C@H](CCC(N)=O)NC(=O)CN(C)C(=O)[C@@H](N)Cc1cnc[nH]1)[C@@H](C)O)[C@@H](C)O)C(=O)N[C@@H](CO)C(=O)N[C@@H](CCCCN)C(=O)N[C@@H](Cc1ccc(O)cc1)C(=O)N[C@@H](CC(C)C)C(=O)N[C@@H](CC(=O)O)C(=O)N[C@@H](CCC(=O)O)C(=O)N[C@@H](CCCNC(=N)N)C(=O)N[C@@H](C)C(=O)N[C@@H](C)C(=O)N[C@@H](CCC(N)=O)C(=O)N[C@@H](CC(=O)O)C(=O)N[C@@H](Cc1ccccc1)C(=O)N[C@H](C(=O)N[C@@H](CCC(N)=O)C(=O)N[C@@H](Cc1c[nH]c2ccccc12)C(=O)N[C@@H](CC(C)C)C(=O)N[C@@H](CC(C)C)C(=O)N[C@@H](CC(=O)O)C(=O)N[C@H](C(N)=O)[C@@H](C)O)C(C)C)C(=O)O
2 | 1 | 3 | 1650 | 933 | 6 | 533 | CCCCCCCCCCCCCCCC(=O)N[C@@H](CCC(=O)NCCCC[C@H](NC(=O)[C@H](CC(=O)O)NC(=O)[C@H](CO)NC(=O)[C@@H](NC(=O)[C@H](Cc1ccccc1)NC(=O)[C@@H](NC(=O)CNC(=O)[C@H](CCC(N)=O)NC(=O)[C@@H](CO)NC(=O)[C@@H](N)Cc1cnc[nH]1)[C@@H](C)O)[C@@H](C)O)C(=O)N[C@@H](CO)C(=O)N[C@@H](CCCCN)C(=O)N[C@@H](Cc1ccc(O)cc1)C(=O)N[C@@H](CC(C)C)C(=O)N[C@@H](CC(=O)O)C(=O)N[C@@H](CCC(=O)O)C(=O)N[C@@H](CCCNC(=N)N)C(=O)N[C@@H](C)C(=O)N[C@@H](C)C(=O)N[C@@H](CCC(N)=O)C(=O)N[C@@H](CC(=O)O)C(=O)N[C@@H](Cc1ccccc1)C(=O)N[C@H](C(=O)N[C@@H](CCC(N)=O)C(=O)N[C@@H](Cc1c[nH]c2ccccc12)C(=O)N[C@@H](CC(C)C)C(=O)N[C@@H](CC(C)C)C(=O)N[C@@H](CC(=O)O)C(=O)N[C@H](C(N)=O)[C@@H](C)O)C(C)C)C(=O)O
3 | 0 | 22 | 6260 | 127 | 31 | 103 | CC[C@H](C)[C@H](NC(=O)[C@H](Cc1ccccc1)NC(=O)[C@H](CCC(=O)O)NC(=O)[C@H](CCCCN)NC(=O)[C@H](C)NC(=O)[C@H](C)NC(=O)[C@H](CCC(N)=O)NC(=O)[C@H](CCC(=O)O)NC(=O)[C@H](CC(=O)O)NC(=O)[C@H](CC(C)C)NC(=O)[C@H](Cc1ccc(O)cc1)NC(=O)[C@H](CCCCN)NC(=O)[C@H](CO)NC(=O)[C@H](Cc1ccc(O)cc1)NC(=O)[C@H](CC(=O)O)NC(=O)[C@H](CO)NC(=O)[C@@H](NC(=O)[C@H](Cc1ccccc1)NC(=O)[C@@H](NC(=O)CNC(=O)[C@H](CCC(N)=O)NC(=O)[C@H](CO)NC(=O)[C@@H](N)Cc1cnc[nH]1)[C@@H](C)O)[C@@H](C)O)C(=O)N[C@@H](C)C(=O)N[C@@H](Cc1c[nH]c2ccccc12)C(=O)N[C@@H](CC(C)C)C(=O)N[C@@H](CCSC)C(=O)N[C@@H](CC(N)=O)C(=O)N[C@H](C(N)=O)[C@@H](C)O (H-HSQGTFTSDYSKYLDEQAAKEFIAWLMNT-NH2)
4 | 2 | 93 | 1100 | 30 | 5 | 640 | CCCCCCCCCCCCCCCC(=O)N[C@@H](CCC(=O)NCCCC[C@H](NC(=O)[C@H](CC(=O)O)NC(=O)[C@H](CO)NC(=O)[C@@H](NC(=O)[C@H](Cc1ccccc1)NC(=O)[C@@H](NC(=O)CNC(=O)[C@H](CCC(N)=O)NC(=O)CNC(=O)[C@@H](N)Cc1cnc[nH]1)[C@@H](C)O)[C@@H](C)O)C(=O)N[C@@H](CO)C(=O)N[C@@H](CCCCN)C(=O)N[C@@H](Cc1ccc(O)cc1)C(=O)N[C@@H](CC(C)C)C(=O)N[C@@H](CC(=O)O)C(=O)N[C@@H](CCC(=O)O)C(=O)N[C@@H](CCCNC(=N)N)C(=O)N[C@@H](C)C(=O)N[C@@H](C)C(=O)N[C@@H](CCC(N)=O)C(=O)N[C@@H](CC(=O)O)C(=O)N[C@@H](Cc1ccccc1)C(=O)N[C@H](C(=O)N[C@@H](CCC(N)=O)C(=O)N[C@@H](Cc1c[nH]c2ccccc12)C(=O)N[C@@H](CC(C)C)C(=O)N[C@@H](CC(C)C)C(=O)N[C@@H](CC(=O)O)C(=O)N[C@H](C(N)=O)[C@@H](C)O)C(C)C)C(=O)O
5 | 1 | 3 | 3540 | 933 | 3 | 1070 | CCCCCCCCCCCCCCCC(=O)N[C@@H](CCC(=O)NCCCC[C@H](NC(=O)[C@H](CC(=O)O)NC(=O)[C@H](CO)NC(=O)[C@@H](NC(=O)[C@H](Cc1ccccc1)NC(=O)[C@@H](NC(=O)CNC(=O)[C@H](CCC(N)=O)NC(=O)C(C)(C)NC(=O)[C@@H](N)Cc1cnc[nH]1)[C@@H](C)O)[C@@H](C)O)C(=O)N[C@@H](CO)C(=O)N[C@@H](CCCCN)C(=O)N[C@@H](Cc1ccc(O)cc1)C(=O)N[C@@H](CC(C)C)C(=O)N[C@@H](CC(=O)O)C(=O)N[C@@H](CCC(=O)O)C(=O)N[C@@H](CCC(N)=O)C(=O)N[C@@H](C)C(=O)N[C@@H](C)C(=O)N[C@@H](CCCCN)C(=O)N[C@@H](CCC(=O)O)C(=O)N[C@@H](Cc1ccccc1)C(=O)N[C@H](C(=O)N[C@@H](C)C(=O)N[C@@H](Cc1c[nH]c2ccccc12)C(=O)N[C@@H](CC(C)C)C(=O)N[C@@H](CC(C)C)C(=O)N[C@@H](CC(=O)O)C(=O)N[C@H](C(N)=O)[C@@H](C)O)[C@@H](C)CC)C(=O)O
6 | 1 | 15 | 2190 | 187 | 28 | 114 | CCCCCCCCCCCCCCCC(=O)N[C@@H](CCC(=O)NCCCC[C@H](NC(=O)[C@H](CC(=O)O)NC(=O)[C@H](CO)NC(=O)[C@@H](NC(=O)[C@H](Cc1ccccc1)NC(=O)[C@@H](NC(=O)CNC(=O)[C@H](CCC(N)=O)NC(=O)C(C)(C)NC(=O)[C@@H](N)Cc1cnc[nH]1)[C@@H](C)O)[C@@H](C)O)C(=O)N[C@@H](CO)C(=O)N[C@@H](CCCCN)C(=O)N[C@@H](Cc1ccc(O)cc1)C(=O)N[C@@H](CC(C)C)C(=O)N[C@@H](CC(=O)O)C(=O)NC(C)(C)C(=O)N[C@@H](CCCNC(=N)N)C(=O)N[C@@H](C)C(=O)N[C@@H](C)C(=O)N[C@@H](CCC(N)=O)C(=O)N[C@@H](CC(=O)O)C(=O)N[C@@H](Cc1ccccc1)C(=O)N[C@H](C(=O)N[C@@H](CCC(N)=O)C(=O)N[C@@H](Cc1c[nH]c2ccccc12)C(=O)N[C@@H](CC(C)C)C(=O)N[C@@H](CCSC)C(=O)N[C@@H](CC(=O)O)C(=O)N[C@H](C(N)=O)[C@@H](C)O)C(C)C)C(=O)O
7 | 0 | 20 | 6260 | 126 | 30 | 104 | CC[C@H](C)[C@H](NC(=O)[C@H](Cc1ccccc1)NC(=O)[C@H](CCC(=O)O)NC(=O)[C@@H]1CCCCNC(=O)CC[C@H](NC(=O)[C@H](CC(=O)O)NC(=O)[C@H](CC(C)C)NC(=O)[C@H](Cc2ccc(O)cc2)NC(=O)[C@H](CCCCN)NC(=O)[C@H](CO)NC(=O)[C@H](Cc2ccc(O)cc2)NC(=O)[C@H](CC(=O)O)NC(=O)[C@H](CO)NC(=O)[C@@H](NC(=O)[C@H](Cc2ccccc2)NC(=O)[C@@H](NC(=O)CNC(=O)[C@H](CCC(N)=O)NC(=O)[C@H](CO)NC(=O)[C@@H](N)Cc2cnc[nH]2)[C@@H](C)O)[C@@H](C)O)C(=O)N[C@@H](CCC(N)=O)C(=O)N[C@@H](C)C(=O)N[C@@H](C)C(=O)N1)C(=O)N[C@@H](C)C(=O)N[C@@H](Cc1c[nH]c2ccccc12)C(=O)N[C@@H](CC(C)C)C(=O)N[C@@H](CCSC)C(=O)N[C@@H](CC(N)=O)C(=O)N[C@H](C(N)=O)[C@@H](C)O (H-HSQGTFTSDYSKYLDEQAAKEFIAWLMNT-NH2; lactam 16-20)
8 | 1 | 39 | 2690 | 72 | 41 | 78 | CCCCCCCCCCCCCCCC(=O)N[C@@H](CCC(=O)NCCCC[C@H](NC(=O)[C@H](CC(=O)O)NC(=O)[C@H](CO)NC(=O)[C@@H](NC(=O)[C@H](Cc1ccccc1)NC(=O)[C@@H](NC(=O)CNC(=O)[C@H](CCC(N)=O)NC(=O)[C@@H](CO)NC(=O)[C@@H](N)Cc1cnc[nH]1)[C@@H](C)O)[C@@H](C)O)C(=O)N[C@@H](CO)C(=O)N[C@@H](CCCCN)C(=O)N[C@@H](Cc1ccc(O)cc1)C(=O)N[C@@H](CC(C)C)C(=O)N[C@@H](CC(=O)O)C(=O)N[C@@H](CCC(=O)O)C(=O)N[C@@H](CCC(N)=O)C(=O)N[C@@H](C)C(=O)N[C@@H](C)C(=O)N[C@@H](CCCCN)C(=O)N[C@@H](CCC(=O)O)C(=O)N[C@@H](Cc1ccccc1)C(=O)N[C@H](C(=O)N[C@@H](C)C(=O)N[C@@H](Cc1c[nH]c2ccccc12)C(=O)N[C@@H](CC(C)C)C(=O)N[C@@H](CCSC)C(=O)N[C@@H](CC(N)=O)C(=O)N[C@H](C(N)=O)[C@@H](C)O)[C@@H](C)CC)C(=O)O
